What follows are molecules tested against FGFR2 (Homo sapiens, UniProt P21802) (assay: FGFR wild type enzyme assay (HTRF KinEASE-TK), FGFR2). Conditions: Enz FGFR2 (nM).
Sequence of FGFR2 (P21802 399-821 limits assumed): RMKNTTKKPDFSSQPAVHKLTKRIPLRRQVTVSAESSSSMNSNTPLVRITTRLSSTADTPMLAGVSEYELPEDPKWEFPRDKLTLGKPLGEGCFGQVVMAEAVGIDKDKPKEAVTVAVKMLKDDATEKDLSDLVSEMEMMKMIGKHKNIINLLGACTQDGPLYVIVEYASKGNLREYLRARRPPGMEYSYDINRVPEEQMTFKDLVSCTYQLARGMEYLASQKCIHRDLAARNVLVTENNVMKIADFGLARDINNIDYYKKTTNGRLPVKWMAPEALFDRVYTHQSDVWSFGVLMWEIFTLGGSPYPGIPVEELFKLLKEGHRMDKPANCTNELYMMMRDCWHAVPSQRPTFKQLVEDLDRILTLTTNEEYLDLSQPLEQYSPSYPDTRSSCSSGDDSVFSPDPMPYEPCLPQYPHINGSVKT

Row | IC50 [nM] | SMILES
1 | 1 | Cc1c(-c2cc(Sc3ccccc3C#N)c3c(C#N)cnn3c2)cnn1[C@H]1CCNC1 [Example 122, 4-(2-cyanophenyl)sulfanyl-6-[5-methyl-1-[(3S)-pyrrolidin-3-yl]pyrazol-4-yl]pyrazolo[1,5-a]pyridine-3-carbonitrile]
2 | 9 | Cc1c(-c2cc(Sc3ccc(Cl)cc3C#N)c3c(C#N)cnn3c2)cnn1C1CCNCC1 [Example 123, 4-(4-chloro-2-cyano-phenyl)sulfanyl-6-[5-methyl-1-(4-piperidyl)pyrazol-4-yl]pyrazolo[1,5-a]pyridine-3-carbonitrile]
3 | 1 | Cc1c(-c2cc(Sc3ccccc3C#N)c3c(C#N)cnn3c2)cnn1[C@H]1CC[C@@H](N(C)C)CC1 [Example 124]
4 | 1 | Cc1c(-c2cc(Sc3ccccc3F)c3c(C#N)cnn3c2)cnn1C1CCN(C)CC1 [Example 125]
5 | 1 | CN1CCC[C@H]1C(=O)N1CCC(n2cc(-c3cc(Sc4ncccc4F)c4c(C#N)cnn4c3)cn2)CC1 [Example 126, 4-[(3-fluoro-2-pyridyl)sulfanyl]-6-[1-[1-[(2S)-1-methylpyrrolidine-2-carbonyl]-4-piperidyl]pyrazol-4-yl]pyrazolo[1,5-a]pyridine-3-carbonitrile]
6 | 1 | CN1CCC[C@@H]1C(=O)N1CCC(n2cc(-c3cc(Sc4ncccc4F)c4c(C#N)cnn4c3)cn2)CC1 [Example 127, 4-[(3-fluoro-2-pyridyl)sulfanyl]-6-[1-[1-[(2R)-1-methylpyrrolidine-2-carbonyl]-4-piperidyl]pyrazol-4-yl]pyrazolo[1,5-a]pyridine-3-carbonitrile]
7 | 2 | Cc1ccc(Sc2cc(-c3cnn(C4CCNCC4)c3C)cn3ncc(C#N)c23)nc1C [Example 129]
8 | 40 | Cc1c(-c2cc(Sc3cccc4c3ncn4C)c3c(C#N)cnn3c2)cnn1C1CCN(C)CC1 [Example 131, 4-(1-methylbenzimidazol-4-yl)sulfanyl-6-[5-methyl-1-(1-methyl-4-piperidyl)pyrazol-4-yl]pyrazolo[1,5-a]pyridine-3-carbonitrile]
9 | 10 | Cc1c(-c2cc(Sc3cccc4ncn(C)c34)c3c(C#N)cnn3c2)cnn1C1CCN(C)CC1 [Example 132, 4-(3-methylbenzimidazol-4-yl)sulfanyl-6-[5-methyl-1-(1-methyl-4-piperidyl)pyrazol-4-yl]pyrazolo[1,5-a]pyridine-3-carbonitrile]
10 | 6 | Cc1c(-c2cc(Sc3cccc4c3cnn4C)c3c(C#N)cnn3c2)cnn1C1CCN(C)CC1 [Example 133, 4-(1-methylindazol-4-yl)sulfanyl-6-[5-methyl-1-(1-methyl-4-piperidyl)pyrazol-4-yl]pyrazolo[1,5-a]pyridine-3-carbonitrile]
11 | 1 | Cc1c(-c2cc(Sc3ccccc3F)c3c(C#N)cnn3c2)cnn1[C@H]1CCCNC1 [Example 134, 4-(2-fluorophenyl)sulfanyl-6-[5-methyl-1-[(3S)-3-piperidyl]pyrazol-4-yl]pyrazolo[1,5-a]pyridine-3-carbonitrile]

Same assay, conditions: Enz FGFR2 (nM), FGFR2 wild type enzyme

Row | IC50 [nM] | SMILES
12 | 1 | Cc1c(-c2cc(Sc3ccc(F)cc3C#N)c3c(C#N)cnn3c2)cnn1C1CCNCC1 [Example 135, 4-4-((2-cyano-4-fluorophenyl)thio)-6-(5-methyl-1-(piperidin-4-yl)-1H-pyrazol-4-yl)pyrazolo[1,5-a]pyridine-3-carbonitrile]
13 | 4 | Cc1c(-c2cc(Sc3ccccc3F)c3c(C#N)cnn3c2)cnn1[C@@H]1CCCNC1 [Example 136, (R)-4-((2-fluorophenyl)thio)-6-(5-methyl-1-(piperidin-3-yl)-1H-pyrazol-4-yl)pyrazolo[1,5-a]pyridine-3-carbonitrile]
14 | 1 | Cc1c(-c2cc(Sc3c(F)cccc3C#N)c3c(C#N)cnn3c2)cnn1C1CCNCC1 [Example 137, 4-((2-cyano-6-fluorophenyl)thio)-6-(5-methyl-1-(piperidin-4-yl)-1H-pyrazol-4-yl)pyrazolo[1,5-a]pyridine-3-carbonitrile]
15 | 1 | Cc1c(-c2cc(Sc3ccccc3C#N)c3c(C#N)cnn3c2)cnn1C1CCN(CCO)CC1 [Example 138, 4-((2-cyanophenyl)thio)-6-(1-(1-(2-hydroxyethyl)piperidin-4-yl)-5-methyl-1H-pyrazol-4-yl)pyrazolo[1,5-a]pyridine-3-carbonitrile]
16 | 1 | COCCN1CCC(n2ncc(-c3cc(Sc4ccccc4C#N)c4c(C#N)cnn4c3)c2C)CC1 [Example 139, 4-((2-cyanophenyl)thio)-6-(1-(1-(2-methoxyethyl)piperidin-4-yl)-5-methyl-1H-pyrazol-4-yl)pyrazolo[1,5-a]pyridine-3-carbonitrile]
17 | 1 | CO[C@H](C)CN1CCC(n2ncc(-c3cc(Sc4ccccc4C#N)c4c(C#N)cnn4c3)c2C)CC1 [Example 140, (R)-4-((2-cyanophenyl)thio)-6-(1-(1-(2-methoxypropyl)piperidin-4-yl)-5-methyl-1H-pyrazol-4-yl)pyrazolo[1,5-a]pyridine-3-carbonitrile]
18 | 1 | Cc1c(-c2cc(Sc3ccccc3C#N)c3c(C#N)cnn3c2)cnn1C1CCN(C[C@@H](C)O)CC1 [Example 141, (R)-4-((2-cyanophenyl)thio)-6-(1-(1-(2-hydroxypropyl)piperidin-4-yl)-5-methyl-1H-pyrazol-4-yl)pyrazolo[1,5-a]pyridine-3-carbonitrile]
19 | 13 | Cc1c(-c2cc(Sc3ccccc3C#N)c3c(C#N)cnn3c2)cnn1C1CCN(C[C@H](C)O)CC1 [Example 142, (S)-4-((2-cyanophenyl)thio)-6-(1-(1-(2-hydroxypropyl)piperidin-4-yl)-5-methyl-1H-pyrazol-4-yl)pyrazolo[1,5-a]pyridine-3-carbonitrile]
20 | 2 | Cc1c(-c2cc(Sc3ncccc3F)c3c(C#N)cnn3c2)cnn1C1CCN(C[C@@H](C)O)CC1 [Example 143, (R)-4-((3-fluoropyridin-2-yl)thio)-6-(1-(1-(2-hydroxypropyl)piperidin-4-yl)-5-methyl-1H-pyrazol-4-yl)pyrazolo[1,5-a]pyridine-3-carbonitrile]
21 | 1.5 | Cc1c(-c2cc(Sc3ncccc3F)c3c(C#N)cnn3c2)cnn1C1CCN(C[C@H](C)O)CC1 [Example 144, (S)-4-((3-fluoropyridin-2-yl)thio)-6-(1-(1-(2-hydroxypropyl)piperidin-4-yl)-5-methyl-1H-pyrazol-4-yl)pyrazolo[1,5-a]pyridine-3-carbonitrile]
22 | 7 | Cc1c(-c2cc(Sc3c(F)cc(F)cc3C#N)c3c(C#N)cnn3c2)cnn1C1CCNCC1 [Example 145, 4-((2-cyano-4,6-difluorophenyl)thio)-6-(5-methyl-1-(piperidin-4-yl)-1H-pyrazol-4-yl)pyrazolo[1,5-a]pyridine-3-carbonitrile]
23 | 2 | Cc1c(-c2cc(Sc3ncccc3F)c3c(C#N)cnn3c2)cnn1C1CCN([C@@H](C)CO)CC1 [Example 146, (S)-4-((3-fluoropyridin-2-yl)thio)-6-(1-(1-(1-hydroxypropan-2-yl)piperidin-4-yl)-5-methyl-1H-pyrazol-4-yl)pyrazolo[1,5-a]pyridine-3-carbonitrile]
24 | 2 | Cc1c(-c2cc(Sc3ncccc3F)c3c(C#N)cnn3c2)cnn1C1CCN([C@H](C)CO)CC1 [Example 147, (R)-4-((3-fluoropyridin-2-yl)thio)-6-(1-(1-(1-hydroxypropan-2-yl)piperidin-4-yl)-5-methyl-1H-pyrazol-4-yl)pyrazolo[1,5-a]pyridine-3-carbonitrile]
